What is called melting point is the temperature, or range, at which the solid turns liquid.

On to `C=Cc1ccc(C(=O)Oc2ccc(C(=O)O)cc2)cc1C12CC3CC(CC(C3)C1)C2`, for which the melting point was 86 to 87 °C.
The result for `Nc1nc(C(=O)C(=O)O)cs1` reads above 200 °C; that for `O=C(O)CCc1cccc(-c2nc(=O)c3ccccc3s2)c1`, 180 °C.
The figure for `CCOC(=O)Cc1c(C(=O)OCC)[nH]c2ccccc12` is 75 to 78 °C; for `O=CN(O)C(CS(=O)(=O)c1ccc(-c2ccc(C(F)(F)F)cc2)cc1)c1ccc(O)cc1` (stereo not given) it is 225 °C.
The figure for `CCCCCC(O)CCCC(CCCCCCC(=O)O)S(C)(=O)=O` (stereo not given) is 47 to 48 °C.
For `CC(=O)n1nc(C)c(Oc2cc(Cl)cc(C#N)c2)c1C`, the melting point is below 60 °C.
The result for `CCOC(=O)OC1=C(c2c(C)cc(C)cc2C)C(=O)SC12CCN(OC)CC2` reads 87 to 89 °C.
In turn, `Cc1[nH]c(-c2cccc(C(F)(F)F)c2)nc1C=O` registered a melting point of 180 °C.
The figure for `Cc1cc(N)nc(CCc2nc3cc(Br)cnc3[nH]2)c1` is 216 °C.
In turn, `O=C(O)CCCCCCc1cccc(-c2nc(=O)c3ccccc3s2)n1` returned a melting point of 149 to 151 °C.
The molecule `CC(=O)Nc1cccc(C(=O)N2CCN(CCc3ccc(Cl)cc3)CC2)c1` yielded a melting point of 101 to 107 °C.
The result for `N#Cc1ccc(Cl)cc1NC(=O)c1ccc(Br)cc1` reads 151 to 152 °C; that for `Brc1ccc(OCCCCCCN2CCN(c3nccs3)CC2)cc1`, 66 to 68 °C.
For the molecule `O=C/C=C/c1csc(Nc2ccccc2)n1`, the melting point lay within 142 to 143 °C.
Regarding `CC(C)(C)C(=O)CC(Sc1ccccc1)c1ccc(Cl)cc1Cl` (stereo not given), the melting point is 79 to 80 °C.
As to `CCOC1=NS(=O)(=O)C(S(C)(=O)=O)=C1N`, the melting point lay in the range of 214 to 217 °C.
The result for `CCc1nc2c(-c3cc4cc(Br)oc4cc3C)ncnc2n1C(C1CC1)C1CC1` reads 177 to 178 °C.
In turn, `O=C(Nc1cnccn1)c1cn(-c2ccccc2)c2ccccc2c1=O` registered a melting point of 298 to 300 °C.
For `OC(CCC(O)(C(F)(F)F)C(F)(F)F)(C(F)(F)F)C(F)(F)F`, the melting point is 96 to 98 °C.
On to `COC(=O)C1Oc2ccc(Cl)cc2C(Cc2ccccc2)(c2ccccc2)O1` (stereo not given), for which the melting point was determined as 110 °C.
In the case of `CCC(=C(c1ccccc1)c1ccc(C=CC(=O)O)cc1)c1ccccc1`, the melting point lay within 148 to 150 °C.
The result for `Cc1noc(C)c1-c1cn(Cc2ccccc2)c(=O)c2cnccc12` reads 174 to 177 °C.
The result for `O=C(O)c1ccc(CCOc2c(F)ccc3nc(C(=O)NCc4cccc(OCCOc5nc[nH]n5)c4)[nH]c(=O)c23)cc1` reads 122 to 124 °C; that for `O=C(O)c1cccc(CC2COc3ccc(OCc4nc5cc(F)ccc5s4)cc3C2O)c1` (stereo not given), 208 to 210 °C; that for `CCCCCCCCCCOc1cc2oc3c(C(=O)O)cccc3c(=O)c2cc1CCC(=O)O`, 180 to 182 °C.
The figure for `COCC1c2ccccc2CCN1c1nc(Nc2ccc(F)cc2)nc(C)c1C` (stereo not given) is 193 to 195 °C; for `Nc1ccc(C2=NN3CCCC3Cc3cc4c(cc32)OCO4)cc1` (stereo not given) it is 153 to 155 °C.
`CC(=O)N1CCc2sc(C(=O)CCCN3CCC(c4noc5cc(F)ccc45)CC3)cc2C1`: the melting point was found to be 235 °C.
`CCCC/C(=C\C=C\C(=O)Oc1ccc([N+](=O)[O-])cc1)c1cccc(OC)c1` displayed a melting point of 81.5 to 83 °C.
The figure for `Brc1cccc2[nH]cc(Cc3cccnc3)c12` is 173 to 174 °C; for `CCOC(=O)C=C1CN=C(c2ccccc2F)c2cc(Cl)ccc2N1` it is 109 to 111 °C.
The figure for `CCOP(=O)(/C=C/c1cn(-c2ccccc2)nc1OCc1ccc(OCc2nc(-c3cccnc3)oc2C)c(OC)c1)OCC` is 128 to 129 °C; for `Cc1ccccc1N1CNC(=O)C12CCN(C(=O)c1cc(C(F)(F)F)cc(C(F)(F)F)c1)CC2` it is 164 to 168 °C; for `CNC(=O)c1c(NC(=O)CCl)c(OC)c(C(=O)NC)c(NC(=O)CCl)c1OC` it is 146 to 148 °C.
The result for `COc1ccc(N2CCOP(=O)(Oc3ccccc3)OCC2)cc1` reads 124 to 126 °C; that for `c1ccc(C(Oc2ccc(-c3nc(COc4ccc(CCCn5ccnc5)cc4)co3)cc2)c2ccccc2)cc1`, 106 to 107 °C.
The molecule `Cc1cc2cn[nH]c2c(C(=O)NC(C)C)c1NC(=O)c1cc(Br)nn1-c1ncccc1Cl` came in with a melting point of 163 to 166 °C.
The figure for `CCOC(=O)c1ccc(N)c(OCC#N)c1` is 140 to 142 °C; for `CNC(=O)[C@@H]1C[C@@H](Oc2ccccc2)CN1S(=O)(=O)c1ccc(Cl)c(COc2cccc3c(-n4ccnc4)cc(C)nc23)c1Cl` it is 97 °C; for `N#Cc1c(N2CCCCC2)cc(-c2ccc(-n3cccc3)cc2)c2c1Cc1ccccc1-2` it is 224 to 226 °C.
Molecule `CC(=O)c1cc(F)ccc1Oc1nc2ccc(-n3cc(-c4ccccc4)nn3)cc2cc1Cc1ccccc1` displayed a melting point of 183 °C.
The molecule `C=Cc1cncc(-c2cc(NC(=O)Cc3ccc4ccccc4c3)n[nH]2)c1` had a melting point of 218 to 220 °C.
Turning to `O=c1ccc(=O)c2c(=O)c3ccccc3c(=O)c1=2`, the melting point lay in the range of 211 to 213 °C.
`CCN1CCN(C(C(=O)N(C)CCO)c2ccc(Nc3nc(-c4cccc(NC(=O)c5cc6c(s5)CCCCC6)c4C)cn(C)c3=O)cc2)CC1` (stereo not given) came in with a melting point of 163 to 165 °C.
Regarding `CC(C)(C)OC(=O)c1ccc(NC#N)cc1`, the melting point fell in the range of 94 to 95 °C.
Consider `Cc1cc(NC(=O)C(C)(O)COc2ccc(OCCCl)cc2)ccc1[N+](=O)[O-]` (stereo not given), for which the melting point lay within 131 to 133 °C.
The figure for `CN1CCC(=C2c3ccccc3C3=C(c4ccccc42)C2(C)C=CC3O2)CC1` (stereo not given) is 175 to 177 °C; for `COCc1c(C=NO)ncc2[nH]c3cccc(Cc4ccc(Cl)cc4)c3c12` it is 224 to 228 °C.
In turn, `CC(C)NC1=NS(=O)(=O)c2ccc(S(C)(=O)=O)cc2N1` gave a melting point above 300 °C.
In turn, `CCOCCn1c(C(=O)C2CCN(CCC3(c4ccccn4)CCN(C(=O)c4cc(OC)c(OC)c(OC)c4)C3)CC2)nc2ccccc21` (stereo not given) registered a melting point of 50 to 55 °C.
In turn, `CS(=O)(=O)c1ccc(-c2cnn(Cc3ncc(Cl)s3)c(=O)c2-c2ccc(F)cc2)cc1` came in with a melting point of 185 to 186 °C.
The result for `CN1CCC2(CC1)CN(c1ccccc1[N+](=O)[O-])c1cc(Cl)ccc12` reads 130 to 131 °C.
The molecule `CN1C[C@H](CN2CCN(C(c3ccccc3)c3ccccc3)CC2)C[C@@H]2c3cccc4[nH]c(Br)c(c34)C[C@H]21` registered a melting point of 255 °C.
The result for `COc1ccc2c(c1)OC(C(=O)O)C2` (racemic) reads 108 to 110 °C; that for `CON=C(C(C)=NN=Cc1ccccc1N(OC)C(=O)OC)c1ccc(F)cc1`, 88 to 90 °C.
Turning to `CC(C(N)=O)c1ccc2c(c1)CCc1ccccc1O2` (stereo not given), the melting point was 122 to 123 °C.
`O=c1[nH]c2ccccc2n1CCCCN1CCC(O)(c2ccc(Cl)cc2)CC1` came in with a melting point of 161 °C.
In the case of `COc1cc(C(=O)NCCc2ccccc2)cc([N+](=O)[O-])c1OC`, the melting point is 121 to 122 °C.
Molecule `COC(=O)CC[C@H]1CC[C@@H](n2c(C)nn(-c3ccc(C#N)cc3)c2=O)CC1` had a melting point of 92 to 96 °C.
